According to ChEMBL document CHEMBL1932922, “Synthesis, antitubercular evaluation and 3D-QSAR study of N-phenyl-3-(4-fluorophenyl)-4-substituted pyrazole derivatives” (Bioorg Med Chem Lett, 2012):

Test system: Mycobacterium tuberculosis
Assay: Antituberculosis activity against Mycobacterium tuberculosis H37Rv ATCC 27294 by modified BACTEC 460 method
Type: functional, organism-based
Details: for IC90 / IC50: Mycobacterium tuberculosis, H37Rv ATCC 27294

| Compound | pIC90 | IC90 | IC50 (read-out: IC50) | IC50 (read-out: pIC50 (converted)) |
| --- | --- | --- | --- | --- |
| Nc1nc(-c2ccc(Cl)cc2)cc(-c2cn(-c3ccccc3)nc2-c2ccc(F)cc2)n1 | <3.65 | > 226 µM | 95.5 µM | 95.5 µM |
| O=C(c1ccccc1)N1N=C(c2cccc([N+](=O)[O-])c2)C[C@@H]1c1cn(-c2ccccc2)nc1-c1ccc(F)cc1 | 3.99 | 101 µM | 42.4 µM | 42.7 µM |
| Nc1nc(-c2ccccc2O)cc(-c2cn(-c3ccccc3)nc2-c2ccc(F)cc2)n1 | 4.18 | 65.9 µM | 57 µM | 57.5 µM |
| Fc1ccc(-c2nn(-c3ccccc3)cc2-c2cc(-c3ccc(Br)cc3)nc(=S)[nH]2)cc1 | 4.42 |  |  | 115 µM |
| Cc1ccc(C2=NN[C@@H](c3cn(-c4ccccc4)nc3-c3ccc(F)cc3)C2)cc1 | 5.39 |  |  | 5.37 µM |
| O=C(/C=C/c1cn(-c2ccccc2)nc1-c1ccc(F)cc1)c1ccccc1O | 4.34 | 45.4 µM | 26.2 µM | 26.3 µM |
| Cc1ccc(-c2cc(-c3cn(-c4ccccc4)nc3-c3ccc(F)cc3)[nH]c(=S)n2)cc1 | 4.45 | 35.5 µM | 22.2 µM | 22.4 µM |
| Nc1nc(-c2ccc([N+](=O)[O-])cc2)cc(-c2cn(-c3ccccc3)nc2-c2ccc(F)cc2)n1 | <3.66 | > 220 µM | 75.4 µM | 75.9 µM |
| O=C(c1ccccc1)N1N=C(c2ccc(F)cc2)C[C@@H]1c1cn(-c2ccccc2)nc1-c1ccc(F)cc1 | 5.49 | 3.22 µM | 2.65 µM | 2.63 µM |
| O=C(/C=C/c1cn(-c2ccccc2)nc1-c1ccc(F)cc1)c1ccc(Br)cc1 | 4.74 | 18.1 µM | 9.77 µM | 9.77 µM |
| Cc1ccc(C2=NN(C(=O)c3ccccc3)[C@@H](c3cn(-c4ccccc4)nc3-c3ccc(F)cc3)C2)cc1 | 5.46 | 3.48 µM | 3.02 µM | 3.02 µM |
| O=C(/C=C/c1cn(-c2ccccc2)nc1-c1ccc(F)cc1)c1ccc(O)cc1 | 5.07 | 8.47 µM | 7.46 µM | 7.41 µM |
| Fc1ccc(-c2nn(-c3ccccc3)cc2-c2cc(-c3cccs3)nc(=S)[nH]2)cc1 | 4.06 | 86.4 µM | 22.6 µM | 22.4 µM |
| O=C(c1ccccc1)N1N=C(c2ccc([N+](=O)[O-])cc2)C[C@@H]1c1cn(-c2ccccc2)nc1-c1ccc(F)cc1 | <3.73 | > 187 µM | 57.4 µM | 57.5 µM |
| O=C(/C=C/c1cn(-c2ccccc2)nc1-c1ccc(F)cc1)c1ccc(Cl)cc1 | 4.15 | 71.3 µM | 33.9 µM | 33.9 µM |
| COc1ccc(C(=O)/C=C/c2cn(-c3ccccc3)nc2-c2ccc(F)cc2)cc1 | 5 | 10.1 µM | 6.39 µM | 6.46 µM |
| COc1ccc(C2=NN(C(=O)c3ccccc3)[C@@H](c3cn(-c4ccccc4)nc3-c3ccc(F)cc3)C2)cc1 | 4.62 | 23.8 µM | 13.8 µM | 13.8 µM |
| Nc1nc(-c2cccc([N+](=O)[O-])c2)cc(-c2cn(-c3ccccc3)nc2-c2ccc(F)cc2)n1 | <3.66 | > 220 µM | 52.9 µM | 52.5 µM |
| O=[N+]([O-])c1cccc(-c2cc(-c3cn(-c4ccccc4)nc3-c3ccc(F)cc3)[nH]c(=S)n2)c1 | 4.37 | 43 µM | 27.9 µM | 28.2 µM |
| Nc1nc(-c2ccccc2)cc(-c2cn(-c3ccccc3)nc2-c2ccc(F)cc2)n1 | 5 | 9.94 µM | 5.94 µM | 5.89 µM |
| Nc1nc(-c2ccc(F)cc2)cc(-c2cn(-c3ccccc3)nc2-c2ccc(F)cc2)n1 | 4.07 | 84.3 µM | 36.8 µM | 37.2 µM |
| O=NN1N=C(c2ccc([N+](=O)[O-])cc2)C[C@@H]1c1cn(-c2ccccc2)nc1-c1ccc(F)cc1 | 4.39 | 40.5 µM | 25.3 µM | 25.1 µM |
| O=C(c1ccccc1)N1N=C(c2cccs2)C[C@@H]1c1cn(-c2ccccc2)nc1-c1ccc(F)cc1 | 4.05 | 88.7 µM | 46.9 µM | 46.8 µM |
| Fc1ccc(-c2nn(-c3ccccc3)cc2-c2cc(-c3ccc(Cl)cc3)nc(=S)[nH]2)cc1 | 4.74 | 18 µM | 10.3 µM | 10.2 µM |
| O=C(/C=C/c1cn(-c2ccccc2)nc1-c1ccc(F)cc1)c1ccc(F)cc1 | 5.09 | 8.09 µM | 7.14 µM | 7.08 µM |
| Fc1ccc(-c2nn(-c3ccccc3)cc2[C@H]2CC(c3ccc(Br)cc3)=NN2)cc1 | 4.64 | 22.9 µM | 7.9 µM | 7.94 µM |
